Results from US7754721B2, “Arylpiperazine derivatives and uses thereof” (Roche Palo Alto LLC, priority 2006, dated 2010).

Target: T1, human serotonin transporter (hSERT) (Homo sapiens, UniProt P31645)
T1 construct: expressed in transfected cells; membranes prepared
Test: hSERT scintillation proximity assay, competition with [3H]-Citalopram
Format: binding
Settings: membranes of HEK-293 cells, Cheng-Prusoff
Description: The screening assay of this example was used to determine the affinity of ligands at the hSERT transporter by competition with [^3H]-Citalopram.
Scintillation Proximity Assay (SPA) works by bringing radioligand within close proximity to the bead's scintillant to stimulate light emission. In this assay, the receptor-containing membranes were pre-coupled to the SPA beads and the binding of the appropriate radioligand to the transporter was measured. The light emission was proportional to the amount of bound radioligand. Unbound radioligand produced no signal as a result of distant proximity to scintillant (lack of energy transfer). […]
Cell membranes were prepared using a membrane preparation buffer of 50 mM TRIS (pH 7.4). […] After a second centrifugation, the pellet was re-homogenized and brought to a final volume determined during the assay. […]
The % inhibition was calculated for each compound tested [(Compound counts per minute (CPM) at maximum concentration-Non-Specific CPM)/Total CPM*100]. […]
[formula] where max=total binding, min=non specific binding, x=concentration (M) of the tested compound and n=Hill slope. The inhibition dissociation constant (Ki) of each compound was determined according to the method of Cheng-Prusoff and then converted into negative logarithm (pKi) of the Ki.

T1 sequence (P31645 whole entry): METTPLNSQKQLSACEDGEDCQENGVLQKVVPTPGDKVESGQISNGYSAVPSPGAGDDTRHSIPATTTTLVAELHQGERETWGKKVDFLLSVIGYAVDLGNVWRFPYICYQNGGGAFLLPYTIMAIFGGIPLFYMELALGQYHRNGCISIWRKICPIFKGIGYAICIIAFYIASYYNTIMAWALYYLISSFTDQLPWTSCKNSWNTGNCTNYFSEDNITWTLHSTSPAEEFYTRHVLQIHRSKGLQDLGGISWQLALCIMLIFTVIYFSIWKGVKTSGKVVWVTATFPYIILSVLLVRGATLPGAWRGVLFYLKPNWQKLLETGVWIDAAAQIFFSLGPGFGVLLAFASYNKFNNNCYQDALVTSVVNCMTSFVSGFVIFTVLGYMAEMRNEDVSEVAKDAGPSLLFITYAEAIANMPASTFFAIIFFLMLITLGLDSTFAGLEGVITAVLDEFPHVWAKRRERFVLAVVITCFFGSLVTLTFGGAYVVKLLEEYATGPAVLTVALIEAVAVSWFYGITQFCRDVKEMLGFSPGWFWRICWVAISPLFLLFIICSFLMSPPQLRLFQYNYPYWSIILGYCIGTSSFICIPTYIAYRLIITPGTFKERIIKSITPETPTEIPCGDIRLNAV

Ki: ~135 pM
SMILES: c1ccc(CC2CNCCN2c2ccc3cnccc3c2)cc1 (stereo not shown) [6-(2-Benzyl-piperazin-1-yl)-isoquinoline]
